Experiment [1] concerns Aspergillus flavus ATCC MYA-1005. The experiment is described as follows: Mold growth inhibition. Format: cell-based. The note with it: Aspergillus flavus ATCC MYA-1005, n=3; read-out: Fungal Growth Inhibition MIC. From the text: (§1) We subsequently assessed the carbazole series for antifungal activity, as described in Kjellerup et al., 2017.[15] Table 2, Table 3, Table 4, Table 5 list the minimum inhibitory concentrations (MIC) and the minimum fungicidal concentrations (MFC) of the fifteen compounds tested against the yeasts Saccharomyces cerevisiae, Candida albicans, C. krusei, and two isolates of C. glabrata (a wild-type strain ATCC 90030 and a clinical azole-resistant isolate Cg003 with increased efflux pump expression[19]), and the molds Aspergillus fumigatus and A. flavus. MIC was defined as the lowest concentration inhibiting visual growth of the microorganism in RPMI-1640 media. […] However, in several cases antifungal activity against molds was minimal, Table 5.
(§2) Compound hits from the library screening were evaluated against baker yeast S. cerevisiae and C. albicans (ATCC 90028). The minimum inhibitory concentration (MIC) was defined as the lowest concentration inhibiting visual growth of the microorganism and this was determined in triplicate. Standard errors were typically less than 5%. MICs for synthesized compounds were determined on the following fungal isolates: Saccharomyces cerevisiae (ATCC 9763), Candida albicans (SC5314), Candida krusei (ATCC 6258), Candida glabrata (ATCC 90030), Aspergillus flavus (ATCC MYA-1005) and Aspergillus fumigatus (ATCC 13073), which were purchased from American Type Culture Collection, and C. glabrata strain Cg003, which was kindly provided by Julius Subik, Comenius University in Bratislava, Slovak Republic. Cg003 is a clinical isolate, characterized to be resistant to fluconazole and itraconazole due to overexpression of the multidrug resistance efflux pumps Cdr1p and Cdr2p^5. The fungal growth assay was performed as described in Kjellerup et al., 2017^6.

Experiment [2] concerns Saccharomyces cerevisiae ATCC 9763. Nature of the experiment: Fungal growth inhibition MIC (MFC). Type of experiment: cell-based. The conditions noted are these: ATCC9763; for MIC: Saccharomyces cerevisiae ATCC 9763, RPMI-1640; for MFC: Saccharomyces cerevisiae ATCC 9763, value in brackets.
From the text: as §1, §2

Experiment [3] deals with Candida albicans SC5314. Nature of the experiment: Fungal growth inhibition MIC (MFC). The note with it: for MIC: Candida albicans SC5314, RPMI-1640; for MFC: Candida albicans SC5314, value in brackets. Type of experiment: cell-based.
From the text: as §1, §2

Experiment [4] has as its system Candida glabrata Cg003. The experiment is described as follows: Fungal growth inhibition MIC (MFC). The conditions noted are these: Nakaseomyces glabratus, Candida glabrata Cg003 (clinical azole-resistant isolate); for MIC: RPMI-1640; for MFC: value in brackets. Format: cell-based.
From the text: as §1, §2

Experiment [5] relates to Candida krusei ATCC 6258. Nature of the experiment: Fungal growth inhibition MIC (MFC). Format: cell-based. The conditions noted are these: Pichia kudriavzevii, ATCC6258; for MIC: Candida krusei ATCC 6258, RPMI-1640; for MFC: Candida krusei ATCC 6258, value in brackets.
From the text: as §1, §2

The subject of experiment [6] is Candida glabrata ATCC 90030. The experiment is described as follows: Fungal growth inhibition MIC (MFC). Type of experiment: cell-based. The conditions noted are these: Nakaseomyces glabratus, ATCC90030, Candida glabrata ATCC 90030 (wild-type); for MIC: RPMI-1640; for MFC: value in brackets.
From the text: as §1, §2

Experiment [7] has as its target T1, Mammalian Ca^2+-ATPase (Oryctolagus cuniculus, UniProt P04191).
T1 construct: from tissue; host or cells: rabbit hind leg muscle, sarcoplasmic reticulum membranes (gift, Aarhus University)
The experiment is described as follows: Colorimetric ATPase assay, rabbit sarcoplasmic reticulum membranes (SERCA). Format: biochemical. From the text: To investigate the H^+-ATPase inhibitory effect of the compounds we isolated plasma membranes containing H^+-ATPase from S. cerevisiae and C. albicans cells.[15] Plasma membranes isolated from pig kidney as well as endoplasmic reticulum membranes from rabbit hind leg muscle were used to counter-screen compounds for activity against mammalian Na^+,K^+-ATPase and Ca^2+-ATPase, respectively. Prior to their use, fungal plasma membrane batches were validated by determining the maximum ATP hydrolysis activity, the pH optimum of the ATPase activity, and the sensitivity to inhibition by orthovanadate. ATPase activity was determined by a colorimetric assay that measures the amount of inorganic phosphate liberated over time, as described in Kjellerup et al., 2017.[15] Table 2, Table 3, Table 4 list the IC50 values obtained by measuring the concentration dependence of the ATPase activity for the fifteen carbazole compounds with each of the four membrane preparations.
Pma1-containing plasma membranes were prepared from S. cerevisiae RS72 yeast cells that had been transformed with the full-length cDNA of the S. cerevisiae plasma membrane H^+-ATPase isoform PMA1 under control of the PMA1 promoter, using the same procedure as described in Kongstad et al., 2014^1. For the preparation of C. albicans membranes, a 100 ml overnight culture grown in YPD (10 g/L yeast extract (BD, Sparks, MD), 20 g/L Bacto peptone (BD), 20 g/L D-(+)-glucose) was transferred to 1 L YPD and grown for a further 7 h at RT with agitation (150 rpm), followed by cell harvesting and subsequent membrane preparation using the same procedure as described in Kongstad et al., 2014^1. […] Rabbit sarcoplasmic reticulum membranes containing Sarco/Endoplasmic Reticulum Ca^2+ ATPase (SERCA) were kindly provided by Dr. Claus E. Olesen and Dr. Jesper V. Møller, Aarhus University and prepared as described in Andersen et al., 1985^2. Pig kidney Na^+,K^+-ATPase was kindly provided by Dr. Natalya Fedosova, Aarhus University and prepared as described in Klodos et al., 2002^3.
The compound libraries were purchased from Enamine Ltd, Ukraine and Chembridge Corp, USA. ATPase activity was determined by measuring the amount of liberated phosphate from ATP hydrolysis. […] Reactions were initiated by the addition of Na-ATP to a final concentration of 2.5 mM (Pma1 and Na^+,K^+-ATPase) or 5 mM (SERCA), followed by 30 minutes incubation at 30 °C. The amount of liberated phosphate was determined colorimetrically after addition of STOP solution (mixture of L-ascorbic acid, ammonium heptamolybdate tetrahydrate, and HCl to give final concentrations of 65 mM, 2.2 mM, and 189 mM, respectively) with 5 minutes incubation at room temperature (RT) followed by addition of arsenite solution (mixture of NaAsO2, sodium citrate dihydrate, and acetic acid to give final concentrations of 3.1 mM, 28 mM, and 141 mM, respectively). Absorption was measured at 860 nm after an additional 30 minutes incubation at RT.

Values after ≈ are worked out from the molar mass of the structure shown.

T1 sequence (P04191 1-994 isoform P04191-2): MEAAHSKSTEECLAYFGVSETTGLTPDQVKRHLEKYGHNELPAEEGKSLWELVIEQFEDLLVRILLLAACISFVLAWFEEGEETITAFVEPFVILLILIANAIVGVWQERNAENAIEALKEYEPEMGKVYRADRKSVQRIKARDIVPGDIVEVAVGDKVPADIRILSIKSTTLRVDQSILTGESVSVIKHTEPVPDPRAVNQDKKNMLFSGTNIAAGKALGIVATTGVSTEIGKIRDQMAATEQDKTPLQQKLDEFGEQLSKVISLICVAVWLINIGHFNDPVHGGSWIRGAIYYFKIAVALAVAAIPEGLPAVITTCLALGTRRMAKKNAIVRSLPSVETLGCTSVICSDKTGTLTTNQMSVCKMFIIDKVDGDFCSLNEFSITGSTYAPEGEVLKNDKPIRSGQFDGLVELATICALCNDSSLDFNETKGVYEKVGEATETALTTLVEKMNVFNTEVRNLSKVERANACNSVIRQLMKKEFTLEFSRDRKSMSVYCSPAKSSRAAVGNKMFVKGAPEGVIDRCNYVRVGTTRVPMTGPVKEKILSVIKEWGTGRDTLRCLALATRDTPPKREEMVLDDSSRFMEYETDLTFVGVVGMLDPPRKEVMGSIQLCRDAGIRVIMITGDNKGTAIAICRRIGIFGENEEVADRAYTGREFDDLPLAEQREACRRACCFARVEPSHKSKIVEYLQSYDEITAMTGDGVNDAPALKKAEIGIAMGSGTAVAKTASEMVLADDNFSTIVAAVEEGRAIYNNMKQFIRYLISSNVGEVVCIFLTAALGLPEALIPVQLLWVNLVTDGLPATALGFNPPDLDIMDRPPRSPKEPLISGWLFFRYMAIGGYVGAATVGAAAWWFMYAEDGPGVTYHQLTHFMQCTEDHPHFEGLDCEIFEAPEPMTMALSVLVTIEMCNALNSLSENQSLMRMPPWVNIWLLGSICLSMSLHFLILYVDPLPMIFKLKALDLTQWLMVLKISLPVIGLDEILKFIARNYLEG

One may read the MIC as the lowest concentration found to suppress growth. The MFC is the lowest tested concentration that kills the fungus rather than only halting it. Low values mean greater fungicidal potency, high ones weaker fungicidal potency. The term IC50 denotes the concentration that gives 50% inhibition. Low values mean greater potency in that assay, high ones weaker potency in that assay. In the case of `CN(C)CCCn1c2ccc(Cl)cc2c2cc(Cl)ccc21` [Compound 14, 3-(3,6-dichloro-9H-carbazol-9-yl)-N,N-dimethyl-propan-1-amine], the MIC is above 75 µM in experiment [1]; 5.8 µM (≈ 1.86 µg/mL) in experiment [2]; 24 µM (≈ 7.71 µg/mL) in experiment [3]; 24 µM (≈ 7.71 µg/mL) in experiment [4]; 13 µM (≈ 4.18 µg/mL) in experiment [5]; 24 µM (≈ 7.71 µg/mL) in experiment [6]. The minimal fungicidal concentration (MFC) is 16 µM (≈ 5.14 µg/mL) in experiment [2]; 75 µM (≈ 24.1 µg/mL) in experiment [3]; 75 µM (≈ 24.1 µg/mL) in experiment [4]; 24 µM (≈ 7.71 µg/mL) in experiment [5]; 24 µM (≈ 7.71 µg/mL) in experiment [6]. The compound also registered a half-maximal inhibitory concentration (IC50) in experiment [7] of 13 ± 2.1 µM.

Consider `CN(C)CCCCn1c2ccc(Cl)cc2c2cc(Cl)ccc21` [Compound 15], for which the minimum inhibitory concentration (MIC) is 75 µM (≈ 25.1 µg/mL) in experiment [1]; 2.4 µM (≈ 0.805 µg/mL) in experiment [2]; 24 µM (≈ 8.05 µg/mL) in experiment [3]; 7.5 µM (≈ 2.51 µg/mL) in experiment [4]; 7.5 µM (≈ 2.51 µg/mL) in experiment [5]; 7.5 µM (≈ 2.51 µg/mL) in experiment [6]. For the same compound, the MFC worked out at 5 µM (≈ 1.68 µg/mL) in experiment [2]; 24 µM (≈ 8.05 µg/mL) in experiment [3]; 24 µM (≈ 8.05 µg/mL) in experiment [4]; 16 µM (≈ 5.36 µg/mL) in experiment [5]; 7.5 µM (≈ 2.51 µg/mL) in experiment [6]. In experiment [7], the concentration for half-maximal inhibition (IC50) stood at 17.5 ± 11.4 µM.

For `CN1CCN(CCCn2c3ccc(Cl)cc3c3cc(Cl)ccc32)CC1` [Compound 16, 3,6-dichloro-9-(3-(4-methylpiperazin-1-yl)propyl)-9H-carbazole], the MIC in experiment [1] was 24 µM (≈ 9.03 µg/mL); in experiment [2], 2.4 µM (≈ 0.903 µg/mL); in experiment [3] it was 24 µM (≈ 9.03 µg/mL); in experiment [4], 7.5 µM (≈ 2.82 µg/mL); in experiment [5], 7.5 µM (≈ 2.82 µg/mL); in experiment [6], 7.5 µM (≈ 2.82 µg/mL). Moreover, the MFC in experiment [2] was 2.4 µM (≈ 0.903 µg/mL); in experiment [3], 24 µM (≈ 9.03 µg/mL); in experiment [4] it was 7.5 µM (≈ 2.82 µg/mL); in experiment [5], 7.5 µM (≈ 2.82 µg/mL); in experiment [6], 7.5 µM (≈ 2.82 µg/mL). In addition, in experiment [7], the IC50 amounted to 23.2 ± 6.4 µM.

With `Clc1ccc2c(c1)c1cc(Cl)ccc1n2CCCN1CCOCC1` [Compound 18, 4-(3-(3,6-dichloro-9H-carbazol-9-yl)propyl)morpholine], the minimum inhibitory concentration (MIC) in experiment [1], in experiment [2], in experiment [3], in experiment [4], in experiment [5] and in experiment [6] was above 75 µM in each case. The MFC in experiment [2], in experiment [3], in experiment [4], in experiment [5] and in experiment [6] was above 75 µM in each case. This compound also showed an IC50 in experiment [7] of 70.9 ± 8.4 µM. Besides, the “potency on the Ca^2+-ATPase versus the three other pumps” value in experiment [7] is “much less potent on the Ca^2+-ATPase than the three other pumps”.

The record behind these values is PMC5609566, “Elucidation of antimicrobial activity and mechanism of action by N-substituted carbazole derivatives” (Bioorganic & Medicinal Chemistry Letters, 2017).
